Measured values taken from PubChem BioAssay (NCI).
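Dose response: 5 concentrations. Exposure: 48 h. Format: 96-well plates. Endpoint: linear interpolation; highest concentration if not reached. The concentration for full growth arrest is given as TGI.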

How the values were obtained:
Test in all cases: NCI anticancer screen, dose series, 48 h
[1] = tested on: HCT-15 colon
[2] = tested on: MOLT-4 leukemia
[3] = tested on: SK-MEL-5 melanoma
[4] = tested on: OVCAR-4 ovarian
[5] = tested on: EKVX NSCLC
[6] = tested on: SF-268 CNS
[7] = tested on: MALME-3M melanoma
[8] = tested on: NCI-H522 lung
[9] = tested on: ACHN renal
[10] = tested on: SK-MEL-28 melanoma
[11] = tested on: K-562 leukemia
[12] = tested on: NCI-H460 lung
[13] = tested on: UACC-62 melanoma
[14] = tested on: RPMI-8226 leukemia
[15] = tested on: IGROV1 ovarian
[16] = tested on: RXF 393 renal
[17] = tested on: MDA-N
[18] = tested on: HS 578T breast

Compound	TGI [1]	TGI [2]	TGI [3]	TGI [4]	TGI [5]	TGI [6]	TGI [7]	TGI [8]	TGI [9]	TGI [10]	TGI [11]	TGI [12]	TGI [13]	TGI [14]	TGI [15]	TGI [16]	TGI [17]	TGI [18]
C=CCN(C)CN(C)c1nc(N(C)C)nc(N(C)C)n1	> 100 µM	> 100 µM	> 100 µM	> 100 µM	> 100 µM	> 100 µM	> 100 µM	51.5 µM	> 100 µM	> 100 µM	> 100 µM	> 100 µM	> 100 µM	> 100 µM	> 100 µM			
COc1ccc([C@@]23OC[C@@H]4[C@@H](OC[C@@H]42)c2cc(OC)c(OC)cc23)cc1OC	> 100 µM	> 100 µM	> 100 µM	> 100 µM	> 100 µM		> 100 µM	> 100 µM	> 100 µM	> 100 µM	> 100 µM	> 100 µM	> 100 µM	> 100 µM	> 100 µM	> 100 µM		
O=C1CC(=O)N(CCc2ccccc2)S(=O)(=O)N1CCc1ccccc1	> 100 µM	44.2 µM	44.2 µM	44.6 µM		80.8 µM	79.5 µM	37.5 µM	> 100 µM	> 100 µM	58.1 µM	> 100 µM	77.7 µM	52 µM	42 µM	83.4 µM		
O=c1cc(-c2ccc(Cl)cc2)oc2cc(OCCCOc3ccc4c(=O)cc(-c5ccc(Cl)cc5)oc4c3)ccc12	> 100 µM	> 100 µM	> 100 µM	> 100 µM	> 100 µM	> 100 µM	> 100 µM	> 100 µM	> 100 µM	> 100 µM	> 100 µM	> 100 µM	> 100 µM	> 100 µM	> 100 µM	> 100 µM		
COc1ccc2c(c1)CCC1=CC3(CCC12C)SCCS3 (centres undefined)	> 10 µM	> 10 µM	> 10 µM	> 10 µM		> 10 µM	> 10 µM	> 10 µM	> 10 µM	> 10 µM	> 10 µM		> 10 µM	> 10 µM	> 10 µM		6.36 µM	
COc1cc(O)c2c(=O)cc(C3(O)C=CC(=O)C=C3)oc2c1	1.11 µM	> 100 µM	0.234 µM	3.35 µM	5.79 µM	1.72 µM		0.113 µM	0.22 µM	0.578 µM	11.1 µM	2.06 µM	0.786 µM		0.0328 µM	17.7 µM		8.38 µM
CC(C)C(/C=C/c1ccc(Br)cc1)=N\NC(N)=O	> 100 µM	> 100 µM	> 100 µM	> 100 µM	> 100 µM	> 100 µM		> 100 µM	> 100 µM	> 100 µM	> 100 µM	> 100 µM	> 100 µM	> 100 µM	> 100 µM	> 100 µM		
N#CCCN(CCN(C(=O)Nc1ccccc1)c1ccccc1)C(=O)Nc1ccccc1	> 100 µM	> 84.5 µM	> 100 µM	> 100 µM	> 100 µM	> 100 µM	> 100 µM	> 100 µM	> 100 µM	> 100 µM	> 92.1 µM	> 100 µM	> 100 µM	> 69.2 µM	> 100 µM	> 90.1 µM	> 100 µM	
Cc1ccc(O)c(C(=O)CCCC(=O)c2cc(C)ccc2O)c1	> 100 µM	> 100 µM	> 100 µM	> 100 µM	> 100 µM	> 100 µM	> 100 µM	> 100 µM	> 100 µM	> 100 µM	> 100 µM	> 100 µM	> 100 µM	> 100 µM	> 100 µM			
CC(=O)NNc1nc(C)c(C(/C=C/c2ccc(Cl)cc2)=N/NC(=O)C[N+](C)(C)C)s1	> 100 µM	> 100 µM	> 100 µM	> 100 µM	> 100 µM	> 100 µM	> 100 µM	> 100 µM	> 100 µM	> 100 µM	> 100 µM	> 100 µM	> 100 µM		> 100 µM	> 100 µM		
Cn1ncnc1CCc1ccccc1	> 100 µM	> 100 µM	> 100 µM	> 100 µM		> 100 µM	> 100 µM	> 100 µM	> 100 µM	> 100 µM	> 100 µM	> 100 µM	> 100 µM	> 100 µM	> 100 µM	> 100 µM		
CC1(C)CC(=O)c2c(nc(SSc3nc4c(c(-c5ccccc5)c3C#N)C(=O)CC(C)(C)C4)c(C#N)c2-c2ccccc2)C1	> 10 µM	> 10 µM	> 10 µM	> 10 µM	> 10 µM	> 10 µM	> 10 µM	> 10 µM	> 10 µM	> 10 µM	> 10 µM	> 10 µM		> 10 µM	> 10 µM	> 10 µM		> 10 µM
CC(=O)Nc1ccc(C(=O)NN2C(=O)C(Cl)C2c2ccccc2O)cc1 (centres undefined)	> 100 µM		> 100 µM	> 100 µM	> 100 µM	> 100 µM	> 100 µM	> 100 µM	> 100 µM	> 100 µM	> 100 µM	> 100 µM	> 100 µM		> 100 µM	61 µM		
O=C(c1ccc(Br)cc1)n1c2ccc(Br)cc2c2nc3ccccc3nc21	> 100 µM	> 100 µM	> 100 µM	> 100 µM	> 100 µM	> 100 µM	> 100 µM	> 100 µM	> 100 µM	> 100 µM	> 100 µM	> 100 µM	> 100 µM	> 100 µM	> 100 µM	> 100 µM	> 100 µM	
